From patent US9771361B2, “Inhibitors of influenza viruses replication” (priority 2013, dated 2017) come the findings set out here.

For series [1] the following is noted: human, in vivo.
Series [2] concerns Influenza A/California/04/2009 (pndH1N1) virus. The format is in vivo, BALB/c mice.
The next series concerns influenza A virus. The format is in vivo, mice.
For series [3] the following is noted: in vivo.
Series [4] has as its system influenza A/Wisconsin/67/2005 (H3N2) challenge strain virus. On the set-up: species or system humans. As to conditions: human, in vivo.
The test system of a further series is influenza virus. Further details: species or system mice. The note with it: mouse, in vivo.
For another series, the system named is influenza B virus. The format is cell-based.
The test system of series [5] is influenza A. The format is in vivo, mice.
Series [6] relates to influenza A. On the set-up: species or system mice. As to conditions: mouse, in vivo.
For series [7], the system named is Influenza A/Victoria/3/75 (H3N2) virus. The format is in vivo, BALB/c mice.
In series [8] the test system is influenza A/Wisconsin/67/2005 (H3N2) challenge strain virus. On the set-up: species or system humans. The note with it: human, in vivo. This is another data set of the same source.
In series [9] the test system is influenza virus B/Mass/3/66. The format is in vivo, Balb/c mice.
Series [10] has as its system influenza A/Wisconsin/67/2005 (H3N2) challenge strain virus. Further details: species or system humans. The note with it: human, in vivo. This is another data set of the same source.
Series [11] concerns Influenza A/Vietnam/1203/2004 (H5N1) virus. Further details: species or system BALB/c mice. As to conditions: mouse, in vivo.
Another series deals with influenza A strains. The format is cell-based, influenza A virus.
A short description of series [12]: Conversion of free base Form A to hydrated form B with humidity/water activity. The format is physicochemical. As to conditions: ambient temperature.
The nature of series [13]: Water activity tests: competition slurry of Form A seeded with Form F in IPA/water. The format is physicochemical. As to conditions: Starting Forms A + F, Water Activity (aw) 0.9, Water wt % 2.80.
Series [14] relates to influenza virus A/PR/8/34. The format is in vivo, Balb/c mice.
Where [15] appears, read: 10 mg/kg per treatment, twice a day for 10 days starting 2 hours prior to virus exposure.
Setting [16] is: treatment start +48 h, 10 mg/kg BID.
[17] abbreviates: treatment start +72 h, 10 mg/kg BID.
The mark [18] stands for this setting: Compound (1) 0 mg/kg, Oseltamivir 10 mg/kg, […].

Each structure is given as a SMILES string. “And” between values parts separate entries of the source, which are not always exact repeats. Equal entries are not always repeated. Structures can show the parent of a compound that is named as a salt. Where two headings read alike, the source gives them in different places. Marks after values point to notes of the source that are not given here.

Take `O=C(O)[C@H]1C2CCC(CC2)C1Nc1nc(-c2c[nH]c3ncc(F)cc23)ncc1F` (stereo partly shown) [Compound (1)]: in [1], the “discontinuations and serious adverse events” value was “no discontinuations due to Compound (1)-related adverse events (AE) nor were there any serious adverse events”; the “elevations in alanine aminotransferase (ALT)” value is given as “observed”; the “incidence of decreased blood phosphorus level” value turned out to be 18.1%; the “incidence of nasal congestion” value was 1.4%. Moreover, in [1], the incidence of rhinorrhea is 4.2% and the tolerability entry was “well tolerated”. In addition, in [2] (mouse, in vivo), the Survivors/Total was 9/9*** and 10/10***. In the series on influenza A virus (mouse, in vivo), the protection result is on record as “partial protection”; the “protection from death and BW loss” value is “complete protection from death and reduced BW loss”; the survival result is on record as “complete survival”. Besides, the “Percent Survival” value in the series on influenza A virus (mouse, in vivo, 1 mg/kg) is on record as 100%. Further, in [3], the “liver function abnormalities and serum phosphate decreases” value is reported as “Neither liver function abnormalities nor serum phosphate decreases were observed”. The “rates of seroconversion versus placebo” value in [4] is recorded as “no difference”. The “correlation between lung titer reduction and Cmin” value in the series with influenza virus is listed as “clear correlation”. The “activity against influenza B virus” value with influenza B virus is on record as “limited activity”. The “survival and BW loss” value in the series on influenza A [5] (mouse, in vivo) is “complete survival and a dose-dependent reduction in BW loss”. In the series on influenza A [5] (mouse, in vivo, 0.1 mg/kg), the “Percent Body Weight Loss on Study Day 8” value is listed as −31.9% and the “Percent Survival” value is listed as 0%. In the series on influenza A [5] (mouse, in vivo, 0.3 mg/kg), the “Percent Body Weight Loss on Study Day 8” value was −30.4% and the “Percent Survival” value is 25%. Besides, in the series with influenza A [5] (mouse, in vivo, 1 mg/kg), the “Percent Body Weight Loss on Study Day 8” value is recorded as −16.8% and the “Percent Survival” value came to 100%. For the same compound, in the series with influenza A [5] (mouse, in vivo, 3 mg/kg), the “Percent Body Weight Loss on Study Day 8” value is reported as −8.7% and the “Percent Survival” value is 100%. In the series on influenza A [5] (mouse, in vivo, 10 mg/kg), the “Percent Body Weight Loss on Study Day 8” value is recorded as −2.8% and the “Percent Survival” value turned out to be 100%. The “reduction in lung viral titers” value in the series with influenza A [6] is “robust, statistically significant reductions in lung viral titers”. Moreover, the Survivors/Total in [7] (mouse, in vivo) was 10/10***. Also, in series [8], the “AUC viral shedding versus pooled placebo” value is reported as “statistically significant reduction”, the “dose response trend in median AUC viral shedding in nasal swabs” value was “statistically significant dose response trend”, the “improvement over placebo in viral shedding” value is recorded as “a similar magnitude of improvement over placebo was not observed” and the “peak viral shedding versus pooled placebo” value is given as “significant reductions”. In series [9] (mouse, in vivo), the “Penh (Day 6/7)” value is 1.90 and 2.06 and 2.04; the “Survival (21 days)” value is on record as 0%; the “Weight Loss (Day 8)” value is 33.6% and 33.9% and 33%; the “activity against influenza B in vivo” value is on record as “little activity”. Besides, in [9] (mouse, in vivo), the “interference with the effectiveness of Oseltamivir” value is recorded as “does not interfere with the effectiveness of Oseltamivir” and the “protection against morbidity, BW loss or loss of lung function” value was “no significant protection against morbidity, BW loss or loss of lung function”. Also, in [10], the “median AUC of influenza-like symptoms versus placebo” value is on record as “statistically significant reduction”, the “median duration of composite clinical symptoms versus placebo” value is given as “statistically significant reduction” and the “median duration of influenza-like symptoms versus placebo” value was “statistically significant reduction”. In addition, in series [11], the protection entry was “complete protection”. Further, in the series with influenza A strains, the “activity against all influenza A strains tested” value is given as “potent activity”.

For the compound `O=C(O)[C@H]1C2CCC(CC2)[C@@H]1Nc1nc(-c2c[nH]c3ncc(F)cc23)ncc1F` [Form A of Compound (1)], the “water activity where the hydrate form (form B) was observed” value in [12] is listed as “greater than 0.6”.

As to `O=C(O)[C@H]1C2CCC(CC2)C1Nc1nc(-c2c[nH]c3ncc(F)cc23)ncc1F` (stereo partly shown) [Form A of HCl salt of Compound (1).½H2O], the “Final Form” value in series [13] is “converted to Form F of HCl salt of Compound (1).3H2O”.

For the compound `CCOC(=O)C1=C[C@@H](OC(CC)CC)[C@H](NC(C)=O)[C@@H](N)C1` [Oseltamivir], the Survivors/Total is on record as 10/10*** in [2] (setting [15]) and 9/10*** in series [7] (setting [15]). For the same compound, the “Percent Body Weight Loss on Study Day 8” value in the series with influenza A virus (mouse, in vivo, 10 mg/kg) is listed as −28.9%; in the series on influenza A virus (setting [16]), −31.1%; in the series on influenza A virus (setting [17]), −31.3%; in the series on influenza A [5] (mouse, in vivo, 10 mg/kg), −19.1%. Besides, the “Percent Survival” value with influenza A virus (mouse, in vivo, 10 mg/kg) is 100%; in the series with influenza A virus (setting [16]), 80%; in the series on influenza A virus (setting [17]), 0%; in the series on influenza A [5] (mouse, in vivo, 10 mg/kg) it was 100%. Also, the survival entry in the series with influenza A [5] (10 mg/kg BID, same experiment) is reported as “All of the oseltamivir-administered mice survived”. Further, the “Penh (Day 6/7)” value in [9] (setting [18]) was determined as 1.08. The entries for the “Survival (21 days)” value in series [9] (setting [18]) and in [14] (setting [18]) were 100% and 0%, respectively. In addition, the entries for the “Weight Loss (Day 8)” value in [9] (setting [18]) and in series [14] (setting [18]) were 12.8% and 32.0%, respectively. The “protection from death, BW loss and lung function” value in [9] (mouse, in vivo) is “complete protection from death, reduced BW loss and restored lung function”; in [14] (mouse, in vivo), “did not protect from death reduce BW loss or restore lung function”. In addition, the “Penh (Day 3)” value in series [14] (setting [18]) is listed as 2.36.
